Each compound was assayed against T1, CETP (Homo sapiens, UniProt P11597) (assay: CETP inhibition, buffer assay system (SPA, radiolabeled cholesteryl ester transfer from HDL to LDL)). Settings: partially purified CETP, selected compounds, read-out: 1C50.
T1 sequence (P11597 18-493): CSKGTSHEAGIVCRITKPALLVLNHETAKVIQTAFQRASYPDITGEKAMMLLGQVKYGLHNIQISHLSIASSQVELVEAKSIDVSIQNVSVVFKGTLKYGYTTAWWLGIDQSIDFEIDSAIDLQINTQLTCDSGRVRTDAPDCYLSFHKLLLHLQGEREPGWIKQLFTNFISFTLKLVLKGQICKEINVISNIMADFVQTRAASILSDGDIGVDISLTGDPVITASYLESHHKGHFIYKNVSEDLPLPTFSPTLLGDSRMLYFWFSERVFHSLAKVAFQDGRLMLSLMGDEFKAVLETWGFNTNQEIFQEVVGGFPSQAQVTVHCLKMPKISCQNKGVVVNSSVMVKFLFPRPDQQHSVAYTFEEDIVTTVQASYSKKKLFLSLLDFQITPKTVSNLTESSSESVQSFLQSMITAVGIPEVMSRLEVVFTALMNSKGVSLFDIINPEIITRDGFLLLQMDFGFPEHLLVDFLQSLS
Format: biochemical
Method: Activity of CETP inhibitors was determined using a buffer assay system. Partially purified CETP transferred radiolabeled cholesteryl ester from HDL donor particles to biotin-labeled LDL acceptor particles. The reaction was stopped by addition of streptavidin-coupled scintillation proximity assay (SPA) beads. These beads captured the biotinylated acceptor particles and transferred radioactivity was measured. The assay system was purchased and performed according to manufacturer's recommendations (Amersham Biosciences). Inhibitory activity of compounds was determined as percentage of positive control activity containing CETP together with donor and acceptor particles. Serial dilution of compounds was performed in order to determine the IC50 values.
Work on CC(C)CCN(Cc1ccc(C(C)(C)C)cc1)C(=O)c1cccc2cc[nH]c12 [Compound 1, 1H-Indole-7-carboxylic acid (4-tert-butyl-benzyl)-(3-methyl-butyl)-amide] yielded an IC50 of 539 nM. With CC(C)(C)c1ccc(CN(CCc2ccc(F)cc2)C(=O)c2cccc3c2NCC3)cc1 [Compound 76, 2,3-Dihydro-1H-indole-7-carboxylic acid (4-tert-butyl-benzyl)-[2-(4-fluoro-phenyl)-ethyl]-amide] the IC50 was 58 nM. CC(C)(C)c1ccc(CN(CCOc2ccc(F)cc2)C(=O)c2cccc3cc[nH]c23)cc1 [Compound 90, 1H-Indole-7-carboxylic acid (4-tert-butyl-benzyl)-[2-(4-fluoro-phenoxy)-ethyl]-amide] gave an IC50 of 202 nM.
